Four molecules from US5597835A, “Acyl CoA:cholesterol acyltransferase inhibitors” (Korea Institute of Science and Technology, priority 1993, dated 1997) can be followed below.

Data set [1] addresses T1, acyl CoA:cholesterol acyltransferase (ACAT) (Rattus norvegicus, UniProt Q7TQM4).
T1 construct: microsomal enzyme (10 mg/ml of protein) derived from rat liver tissue; from tissue; host or cells: rat liver microsomes
T1 sequence (Q7TQM4 1-524): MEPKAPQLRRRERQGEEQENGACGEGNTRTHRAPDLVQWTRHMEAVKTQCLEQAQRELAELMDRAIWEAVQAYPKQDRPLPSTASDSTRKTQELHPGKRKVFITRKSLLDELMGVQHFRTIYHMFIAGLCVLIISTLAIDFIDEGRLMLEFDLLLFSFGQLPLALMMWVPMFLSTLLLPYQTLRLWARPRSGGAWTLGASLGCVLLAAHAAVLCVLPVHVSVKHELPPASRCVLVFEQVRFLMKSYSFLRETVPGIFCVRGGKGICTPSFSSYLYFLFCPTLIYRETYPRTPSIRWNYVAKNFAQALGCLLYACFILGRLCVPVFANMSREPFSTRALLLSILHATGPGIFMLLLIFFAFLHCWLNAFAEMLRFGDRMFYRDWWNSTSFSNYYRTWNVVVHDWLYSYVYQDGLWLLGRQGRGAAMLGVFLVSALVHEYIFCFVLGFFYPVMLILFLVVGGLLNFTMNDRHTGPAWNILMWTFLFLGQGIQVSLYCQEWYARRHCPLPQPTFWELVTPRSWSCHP
Briefly: ACAT inhibiting activity (modified method of Tabas et al.; [1-14C] oleoyl-CoA, rat liver microsomal enzyme). Type of data set: biochemical. The settings on record: 10 μM [1-14C] oleoyl-CoA, pH 7.4, 37° C., 15 minutes, read-out: IC50 (inhibitor concentration which reduces the activity of ACAT by 50%). On the procedure: ACAT activity was determined as follows in accordance with a modified method of Tabas et al. described in J. Biol. Chem., 261, 3147-3154 (1986).
10 μl of sample, 4.0 μl of microsomal enzyme (10 mg/ml of protein) derived from rat liver tissue, 20 μl of analysis buffer(0.5M KH2 PO4, 10 mM dithiothreitol (DTT), pH 7.4), 15 μl of 40 mg/ml bovine serum albumin(essentially free of fatty acids), 2 μl of 20 mg/ml cholesterol and 41 μl of H2 O were mixed together and the resulting mixture was reacted at 37° C. for 15 minutes. 8 μl of [1-^14 C] oleoyl-CoA(0.05 μCi, final concentration of 10 μM) was added to the mixture and the reaction mixture was reacted at 37° C. for 15 minutes.
1 ml of isopropanol-heptane (4:1(v/v)) was added to the mixture to stop the reaction, 0.6 ml of heptane and 0.4 ml of said analysis buffer(5-fold diluted) were added thereto and the resulting mixture was centrifuged at 2,000 g for 2 minutes to obtain the supernatant.
5 ml of scintillation cocktail lipoluma (Lumac Co., U.S.A.) was added to 100 μl of the supernatant obtained above and enzyme activity was determined by detecting the amount of cholesteryl ester in the mixture based on the unit of count per minute (CPM) by using a liquid scintillation counter.
ACAT inhibiting activity was calculated in accordance with the following equation: [formula] wherein the blank composition had the same composition as the above sample but without enzyme and GERI-BP001 or its derivatives, and was reacted at 37° C.; and the control had the same composition as the above sample without GERI-BP001 or its derivatives and was reacted at 37° C. for 15 min.
On the technique in general: Liver microsomes are vesicles of endoplasmic reticulum, rich in cytochrome P450 enzymes.

The test system of data set [2] is female ICR mice. Put plainly: Toxicity of GERI-BP001 in mice (subcutaneous injection). As to conditions: 500 mg/kg. Type of data set: in vivo, mouse. As to the method:
5 female ICR mice weighing 23 g were administered via subcutaneous injection with 500 mg/kg of GERI-BP001.

In data set [3] the test system is rats. Put plainly: Acute toxic effect in rats. The settings on record: dose and route not stated. Type of data set: in vivo, rat.
A short description of data set [4]: Solubility (physicochemical properties).

Consider `CC(=O)O[C@H]1CC[C@]2(C)[C@H]3C(O)c4c(cc(-c5cccnc5)oc4=O)O[C@]3(C)CC[C@H]2C1(C)C` (stereo partly shown) [GERI-BP001-A], for which, in data set [1], the IC50 was in the range of 140 to 150 µM.

As for `CCC(=O)O[C@H]1CC[C@]2(C)[C@H]3Cc4c(cc(-c5cccnc5)oc4=O)O[C@]3(C)CC[C@H]2C1(C)C` [GERI-BP001-B], the IC50 in data set [1] lay within 70 to 80 µM.

For `CC(=O)O[C@H]1CC[C@]2(C)[C@H]3Cc4c(cc(-c5ccc[n+]([O-])c5)oc4=O)O[C@]3(C)CC[C@H]2C1(C)C` [GERI-BP001-C], the IC50 in data set [1] was in the range of 110 to 120 µM.

Consider `CC(=O)O[C@H]1CC[C@]2(C)[C@H]3Cc4c(cc(-c5cccnc5)oc4=O)O[C@]3(C)CC[C@H]2C1(C)C` [GERI-BP001], for which, in data set [1], the IC50 was in the range of 70 to 80 µM. Moreover, the “acute toxicity (judgement)” value in data set [2] (female ICR mice, subcutaneous injection) is “does not cause acute toxicity”. Also, the mortality entry in data set [2] (female ICR mice, subcutaneous injection, until 4 days after administration) is “none of the mice was dead”. In addition, in data set [2] (mouse, in vivo, sc), the activities of mice result is given as “increased”, the excited state result was “an excited state was induced”, the “time after administration at which excited state was induced” value is recorded as “about 15 minutes” and the “time after administration at which symptoms disappeared” value is given as “about 2 hours”. Also, the acute toxic effect entry in data set [3] is reported as “acute toxic effect was not found”. In addition, the Solubility entry in data set [4] (MeOH, CHCl3) is on record as “soluble”. The Solubility entry in data set [4] (n-hexane, H2O) was “insoluble”.
